Reference: patent US10881110B2, “Herbicidal compositions comprising isoxazolo[5,4-b]pyridines” (BASF SE, priority 2014, dated 2021)

Tests used:
Assay in all cases: greenhouse post-emergence herbicidal test
[1] = system: GALAP; assay type: in vivo, Galium aparine; design: key to herbicidal activity against GALAP found: rating on a scale from 0 to 100; conditions: post emergence
Description: (§1) The culture containers used were plastic pots containing medium loamy sand with approximately 4.6% of humus and 69.9% sand as substrate. The seeds of the test plants were sown separately for each species.
(§2) For the post-emergence treatment, the test plants were grown to a plant height of from 1 to 15 cm, depending on the plant habit, and only then treated with the active compounds which had been suspended or emulsified in water. To this end, the test plants were either sown directly, and grown in the same containers, or they were first grown separately as seedlings and transplanted into the test containers a few days prior to treatment.
(§3) Depending on the species, the plants were kept at 10-25° C. and 20-35° C., respectively.
(§4) The test period extended over 1 to 3 weeks. During this time, the plants were tended and their response to the individual treatments was evaluated 20 days after treatment except mentioned otherwise.
(§5) Evaluation was carried out using a scale from 0 to 100. 100 means no emergence of the plants, or complete destruction of at least the above-ground parts, and 0 means no damage or normal course of growth.
(§6) The respective stated components A and B, and, if appropriate, C, were formulated as a 10% by weight strength emulsion concentrate and, with addition of the amount of solvent system, introduced into the spray liquor used for applying the active compound. In the examples, the solvent used was water.
(§7) In the examples below, using the method of S. R. Colby (1967) “Calculating synergistic and antagonistic responses of herbicide combinations”, Weeds 15, p. 22 ff., the value E, which is expected if the activity of the individual active compounds is only additive, was calculated. E=X+Y−(X·Y/100)

[2] = system: ABUTH; assay type: in vivo, Abutilon theophrast; design: key to herbicidal activity against ABUTH found: rating on a scale from 0 to 100; conditions: post emergence
Description: as §1, §2, §3, §4, §5, §6, §7

[3] = system: MATCH; assay type: in vivo, Matricaria recutita; design: key to herbicidal activity against MATCH found: rating on a scale from 0 to 100; conditions: post emergence
Description: as §1, §2, §3, §4, §5, §6, §7

[4] = system: POLCO; assay type: in vivo, Polygonum convolvulus; design: key to herbicidal activity against POLCO found: rating on a scale from 0 to 100; conditions: post emergence
Description: as §1, §2, §3, §4, §5, §6, §7

[5] = system: ERICA; assay type: in vivo, Conyza canadensis; design: key to herbicidal activity against ERICA found: rating on a scale from 0 to 100; conditions: post emergence
Description: as §1, §2, §3, §4, §5, §6, §7

[6] = system: VIOAR; assay type: in vivo, Viola arvensis; design: key to herbicidal activity against VIOAR found / herbicidal activity against VIOLA found: rating on a scale from 0 to 100; conditions: post emergence
Description: as §1, §2, §3, §4, §5, §6, §7

[7] = system: ALOMY; assay type: in vivo, Alopecurus myosuroides; design: key to herbicidal activity against ALOMY found: rating on a scale from 0 to 100; conditions: post emergence
Description: as §1, §2, §3, §4, §5, §6, §7

[8] = system: GERDI; assay type: in vivo, Geranium dissectum; conditions: Geranium dissectum, post-emergence, 480 h, post emergence, read-out: herbicidal activity against GERDI found
Description: as §1, §2, §3, §4, §5, §6, §7

[9] = system: APESV; assay type: in vivo, Apera spica-venti; design: key to herbicidal activity against APESV found: rating on a scale from 0 to 100; conditions: post emergence; applied alone at 0.5 g/ha a.i.
Description: as §1, §2, §3, §4, §5, §6, §7

[10] = application rate a.i.: I.1 62.5 g/ha, B.107 (topramezone) 6 g/ha, alone or as mixture (composition 1.107)
[11] = application rate a.i.: I.1 20.8 g/ha, B.107 (topramezone) 6 g/ha, alone or as mixture (composition 1.107)
[12] = g/ha a.i.: I.1 125, B.63 1, mixture 125+1
[13] = g/ha a.i.: I.1 125, B.63 0.5, mixture 125+0.5
[14] = applied alone at 31.25 g/ha a.i.
[15] = applied alone at 62.5 g/ha a.i.
[16] = a.i. g/ha: I.1 31.25, B.92 0.5, 20 days after treatment

## Cc1c(C(=O)c2cnn(C)c2O)ccc(S(C)(=O)=O)c1C1=NOCC1 [B.107, topramezone]
[1]; [10]
  herbicidal activity against GALAP found: 70
[2]; [11]
  herbicidal activity against ABUTH found: 85
[2]; [10]
  herbicidal activity against ABUTH found: 85
[3]; [11]
  herbicidal activity against MATCH found: 70
[4]; [10]
  herbicidal activity against POLCO found: 35
[5]; [11]
  herbicidal activity against ERICA found: 65
[5]; [10]
  herbicidal activity against ERICA found: 65

## COC(=O)c1ccccc1S(=O)(=O)NC(=O)N(C)c1nc(C)nc(OC)n1 [B.63, tribenuron-methyl]
[6]; g/ha a.i.: I.1 62.5, B.63 0.5, mixture 62.5+0.5
  herbicidal activity against VIOAR found: 65
[6]; [12]
  herbicidal activity against VIOAR found: 40
[3]; [13]
  herbicidal activity against MATCH found: 30
[4]; g/ha a.i.: I.1 31.25, B.63 1, mixture 31.25+1
  herbicidal activity against POLCO found: 30
[4]; [13]
  herbicidal activity against POLCO found: 20
[4]; [12]
  herbicidal activity against POLCO found: 30
[7]; [13]
  herbicidal activity against ALOMY found: 0

## CC(C)C1(C)N=C(c2ncccc2C(=O)O)NC1=O (centres unmarked) [B.35, imazapyr]
[2]; Abutilon theophrasti, post-emergence, 480 h, 10 g/ha a.i., read-out: herbicidal activity against ABUTH found
  pest or weed control at 10 g/ha: 90%
[6]; Viola arvensis, post-emergence, 5 g/ha a.i., read-out: herbicidal activity against VIOAR found
  pest or weed control at 5 g/ha: 55%
[3]; Matricaria chamomilla, post-emergence, 480 h, 10 g/ha a.i., read-out: herbicidal activity against MATCH found
  pest or weed control at 10 g/ha: 55%
[4]; Fallopia convolvulus, post-emergence, 480 h, 5 g/ha a.i., read-out: herbicidal activity against POLCO found
  pest or weed control at 5 g/ha: 95%
[5]; Erigeron canadensis, post-emergence, 480 h, 5 g/ha a.i., read-out: herbicidal activity against ERICA found
  pest or weed control at 5 g/ha: 75%
[8]; 10 g/ha a.i.
  pest or weed control at 10 g/ha: 95%

## CCC(CC)Nc1c([N+](=O)[O-])cc(C)c(C)c1[N+](=O)[O-] [B.123, pendimethalin]
[4]; Fallopia convolvulus, post-emergence, 480 h, B.123 alone 1000 g/ha a.i., read-out: herbicidal activity against POLCO found
  pest or weed control at 1000 g/ha: 65%
[5]; Erigeron canadensis, post-emergence, 480 h, B.123 alone 500 g/ha a.i., read-out: herbicidal activity against ERICA found
  pest or weed control at 500 g/ha: 30%
[5]; Erigeron canadensis, post-emergence, 480 h, B.123 alone 1000 g/ha a.i., read-out: herbicidal activity against ERICA found
  pest or weed control at 1000 g/ha: 60%
[8]; B.123 alone 1000 g/ha a.i.
  pest or weed control at 1000 g/ha: 75%

## O=C(O)COc1ccc(Cl)cc1Cl [B.140, 2,4-D]
[1]; [14]
  herbicidal activity against GALAP found: 0
[1]; [15]
  herbicidal activity against GALAP found: 0
[2]; [14]
  herbicidal activity against ABUTH found: 35
[2]; [15]
  herbicidal activity against ABUTH found: 85
[6]; [14]
  herbicidal activity against VIOAR found: 60
[6]; [15]
  herbicidal activity against VIOAR found: 65
[3]; [14]
  herbicidal activity against MATCH found: 0
[4]; [14]
  herbicidal activity against POLCO found: 65
[4]; [15]
  herbicidal activity against POLCO found: 75
[5]; [14]
  herbicidal activity against ERICA found: 70
[5]; [15]
  herbicidal activity against ERICA found: 80
[7]; [14]
  herbicidal activity against ALOMY found: 0
[7]; [15]
  herbicidal activity against ALOMY found: 0

## CCCCCCCC/C=C\CCCCCCCC(=O)OC [methyl oleate]
[1]; Galium aparine, post-emergence, 480 h, methyl oleate 12 g/ha a.i., read-out: herbicidal activity against GALAP found
  pest or weed control at 12 g/ha: 0%
[2]; Abutilon theophrasti, post-emergence, 480 h, methyl oleate 6 g/ha a.i., read-out: herbicidal activity against ABUTH found
  pest or weed control at 6 g/ha: 0%
[2]; Abutilon theophrasti, post-emergence, 480 h, methyl oleate 12 g/ha a.i., read-out: herbicidal activity against ABUTH found
  pest or weed control at 12 g/ha: 0%
[3]; Matricaria chamomilla, post-emergence, 480 h, methyl oleate 3 g/ha a.i., read-out: herbicidal activity against MATCH found
  pest or weed control at 3 g/ha: 0%
[3]; Matricaria chamomilla, post-emergence, 480 h, methyl oleate 6 g/ha a.i., read-out: herbicidal activity against MATCH found
  pest or weed control at 6 g/ha: 0%
[3]; Matricaria chamomilla, post-emergence, 480 h, methyl oleate 12 g/ha a.i., read-out: herbicidal activity against MATCH found
  pest or weed control at 12 g/ha: 0%
[4]; Fallopia convolvulus, post-emergence, 480 h, methyl oleate 3 g/ha a.i., read-out: herbicidal activity against POLCO found
  pest or weed control at 3 g/ha: 0%
[4]; Fallopia convolvulus, post-emergence, 480 h, methyl oleate 6 g/ha a.i., read-out: herbicidal activity against POLCO found
  pest or weed control at 6 g/ha: 0%
[4]; Fallopia convolvulus, post-emergence, 480 h, methyl oleate 12 g/ha a.i., read-out: herbicidal activity against POLCO found
  pest or weed control at 12 g/ha: 0%
[5]; Erigeron canadensis, post-emergence, 480 h, methyl oleate 3 g/ha a.i., read-out: herbicidal activity against ERICA found
  pest or weed control at 3 g/ha: 0%
[5]; Erigeron canadensis, post-emergence, 480 h, methyl oleate 6 g/ha a.i., read-out: herbicidal activity against ERICA found
  pest or weed control at 6 g/ha: 0%
[5]; Erigeron canadensis, post-emergence, 480 h, methyl oleate 12 g/ha a.i., read-out: herbicidal activity against ERICA found
  pest or weed control at 12 g/ha: 0%
[8]; methyl oleate 3 g/ha a.i.
  pest or weed control at 3 g/ha: 0%
[8]; methyl oleate 6 g/ha a.i.
  pest or weed control at 6 g/ha: 0%
[8]; methyl oleate 12 g/ha a.i.
  pest or weed control at 12 g/ha: 0%

## COC(=O)c1ccc(I)cc1S(=O)(=O)[N-]C(=O)Nc1nc(C)nc(OC)n1.[Na+] [B.44, iodosulfuron-methyl-sodium]
[4]; 1 g/ha a.i.
  herbicidal activity against POLCO found: 90
[7]; 1 g/ha a.i.
  herbicidal activity against ALOMY found: 20

## CCCOCCN(C(=O)CCl)c1c(CC)cccc1CC [B.135, pretilachlor]
[1]; Galium aparine, post-emergence, 480 h, B.135 200 g/ha a.i., read-out: herbicidal activity against GALAP found
  pest or weed control at 200 g/ha: 0%
[2]; Abutilon theophrasti, post-emergence, 480 h, B.135 100 g/ha a.i., read-out: herbicidal activity against ABUTH found
  pest or weed control at 100 g/ha: 0%
[2]; Abutilon theophrasti, post-emergence, 480 h, B.135 200 g/ha a.i., read-out: herbicidal activity against ABUTH found
  pest or weed control at 200 g/ha: 0%
[2]; Abutilon theophrasti, post-emergence, 480 h, B.135 400 g/ha a.i., read-out: herbicidal activity against ABUTH found
  pest or weed control at 400 g/ha: 0%
[3]; Matricaria chamomilla, post-emergence, 480 h, B.135 200 g/ha a.i., read-out: herbicidal activity against MATCH found
  pest or weed control at 200 g/ha: 0%
[3]; Matricaria chamomilla, post-emergence, 480 h, B.135 400 g/ha a.i., read-out: herbicidal activity against MATCH found
  pest or weed control at 400 g/ha: 0%
[4]; Fallopia convolvulus, post-emergence, 480 h, B.135 200 g/ha a.i., read-out: herbicidal activity against POLCO found
  pest or weed control at 200 g/ha: 0%
[5]; Erigeron canadensis, post-emergence, 480 h, B.135 100 g/ha a.i., read-out: herbicidal activity against ERICA found
  pest or weed control at 100 g/ha: 0%
[5]; Erigeron canadensis, post-emergence, 480 h, B.135 200 g/ha a.i., read-out: herbicidal activity against ERICA found
  pest or weed control at 200 g/ha: 0%
[5]; Erigeron canadensis, post-emergence, 480 h, B.135 400 g/ha a.i., read-out: herbicidal activity against ERICA found
  pest or weed control at 400 g/ha: 20%
[8]; B.135 100 g/ha a.i.
  pest or weed control at 100 g/ha: 0%
[8]; B.135 200 g/ha a.i.
  pest or weed control at 200 g/ha: 0%
[8]; B.135 400 g/ha a.i.
  pest or weed control at 400 g/ha: 0%

## CC(C)N(C)S(=O)(=O)NC(=O)c1cc(-n2c(=O)cc(C(F)(F)F)n(C)c2=O)c(F)cc1Cl [B.92, saflufenacil]
[1]; [16]
  herbicidal activity against GALAP found: 80%
[5]; [16]
  herbicidal activity against ERICA found: 80%

## COc1nn(C(=O)NS(=O)(=O)c2c(C(=O)O)csc2C)c(=O)n1C [thiencarbazone]
[9]
  herbicidal activity against APESV found: 25
[5]; applied alone at 0.5 g/ha a.i.
  herbicidal activity against ERICA found: 85
